Experimental data from patent publication US20070027201A1 (Wyeth, priority 2005, published 2007).
pIC50: −log10 of the molar value.

Biological target: T1, progesterone receptor (Homo sapiens, UniProt P06401)
T1 sequence (P06401 1-933): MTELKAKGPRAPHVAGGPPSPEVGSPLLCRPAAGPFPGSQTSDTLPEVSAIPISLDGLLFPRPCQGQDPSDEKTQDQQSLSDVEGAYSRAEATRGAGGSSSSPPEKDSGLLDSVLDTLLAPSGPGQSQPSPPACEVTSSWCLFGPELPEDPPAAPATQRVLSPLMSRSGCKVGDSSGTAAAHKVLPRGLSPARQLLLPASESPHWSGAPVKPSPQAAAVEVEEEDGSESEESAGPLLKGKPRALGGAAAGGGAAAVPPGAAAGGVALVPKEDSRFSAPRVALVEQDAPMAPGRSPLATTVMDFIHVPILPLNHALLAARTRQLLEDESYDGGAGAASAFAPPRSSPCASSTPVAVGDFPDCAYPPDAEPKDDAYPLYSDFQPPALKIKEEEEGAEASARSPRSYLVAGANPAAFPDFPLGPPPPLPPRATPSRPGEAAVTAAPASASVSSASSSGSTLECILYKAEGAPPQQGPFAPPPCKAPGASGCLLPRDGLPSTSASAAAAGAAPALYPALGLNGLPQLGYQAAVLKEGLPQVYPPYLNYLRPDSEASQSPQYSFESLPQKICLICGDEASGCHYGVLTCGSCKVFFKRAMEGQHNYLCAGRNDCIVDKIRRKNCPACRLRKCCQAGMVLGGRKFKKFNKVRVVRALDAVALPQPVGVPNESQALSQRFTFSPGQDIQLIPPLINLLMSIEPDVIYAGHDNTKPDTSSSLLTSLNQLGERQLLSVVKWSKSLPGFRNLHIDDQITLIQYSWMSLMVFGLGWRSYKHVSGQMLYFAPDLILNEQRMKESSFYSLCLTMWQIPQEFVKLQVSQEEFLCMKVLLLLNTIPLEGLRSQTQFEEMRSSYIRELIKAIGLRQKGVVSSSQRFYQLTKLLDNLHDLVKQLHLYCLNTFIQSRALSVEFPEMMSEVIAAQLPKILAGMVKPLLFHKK
Experiment: T47D alkaline phosphatase assay for progesterone receptor modulator (antagonist) activity
Assay type: cell-based
Set-up: endogenous in cells; host or cells: T47D cells
Conditions: T47D cells; for pIC50: antagonist mode in the presence of 1 nM progesterone, 24 hours
Procedure: An assay was performed to identify compounds having progesterone receptor modulator activity. This assay identifies progestins or antiprogestins by determining a compound's effect on alkaline phosphatase activity in T47D cells.
Culture medium: DMEM:F12 (1:1) (GIBCO, BRL) supplemented with 5% (v/v) charcoal stripped fetal bovine serum (not heat-inactivated), 100 U/mL penicillin, 100 μg/mL streptomycin, and 2 mM the GlutaMax® reagent (GIBCO, BRL).
Alkaline phosphatase assay buffer: • I. 0.1M Tris-HCl, pH 9.8, containing 0.2% the Triton™ X-100 reagent • II. 0.1M Tris-HCl, pH 9.8, containing 4 mM p-nitrophenyl phosphate (Sigma).
Frozen T47D cells are thawed in a 37° C. water bath and diluted to 280,000 cells/mL in culture medium. To each well in a 96-well plate (Falcon, Becton Dickinson Labware), 180 μL of diluted cell suspension is added.
Twenty μL of reference or test compounds diluted in the culture medium is then added to each well. When testing for progestin antagonist activity, reference antiprogestins or test compounds are added in the presence of 1 nM progesterone. The cells are incubated at 37° C. in a 5% CO2/humidified atmosphere for 24 hours.
For high throughput screening, one concentration of each compound will be tested at 0.3 μg/mL. Based on an average molecular weight of 300 g/mol for the compounds in the library, the concentration is approximately 1 μM. Subsequently, active compounds will be tested in dose response assays to determine EC50 and IC50.
At the end of treatment, the medium is removed from the plate. Fifty μL of assay buffer I is added to each well. The plates are shaken in a titer plate shaker for 15 minutes. Then 150 μL of assay buffer II is added to each well. Optical density measurements are taken at 5 minute intervals for 30 minutes at a test wavelength of 405 nm.
Analysis of dose-response data. For reference and test compounds, a dose response curve is generated for dose (x-axis) vs. the rate of enzyme reaction (slope) (y-axis). Square root-transformed data are used for analysis of variance and nonlinear dose response curve fitting for both agonist and antagonist modes. Huber weighting is used to down-weight the effects of outliers. EC50 or IC50 values are calculated from the retransformed values. The JMP® software (SAS Institute, Inc.) is used for both one-way analysis of variance and non-linear dose response analysis in both single dose and dose response studies.
Progesterone and trimegestone are reference progestins and RU486 is the reference antiprogestin. All reference compounds are run in full dose response curves and the EC50 and IC50 values are calculated.
In the table provided above, the IC50 values show the relative progesterone receptor antagonist activity in this assay. Lower numbers are indicative of higher potency, i.e., greater PR antagonist activity. Further, the assay has a standard deviation of about ±6.

| SMILES | pIC50 | Active Dose [µM] |
| --- | --- | --- |
| CC(C)C(=O)Nc1ccc(-c2ccc(C#N)n2C)cc1 [Example 5, N-[4-(5-cyano-1-methyl-1H-pyrrol-2-yl)phenyl]-2-methylpropanamide] | 6.77 |  |
| COc1cc(-c2ccc(C#N)n2C)ccc1NC#N [Example 35] | > 6.52 |  |
| C=C(C)C(=O)Nc1ccc(-c2ccc(C#N)n2C)cc1 [Example 12, N-[4-(5-cyano-1-methyl-1H-pyrrol-2-yl)phenyl]-2-methylacrylamide] | 7.01 |  |
| CC(C)c1ccc(S(=O)(=O)Nc2ccc(-c3ccc(C#N)n3C)cc2)cc1 [Example 20, N-[4-(5-cyano-1-methyl-1H-pyrrol-2-yl)phenyl]-4-isopropylbenzenesulfonamide] | ~5.52 |  |
| CC(=O)Nc1ccc(-c2ccc(C#N)n2C)cc1 [Example 8, N-[4-(5-cyano-1-methyl-1H-pyrrol-2-yl)phenyl]acetamide] | ~6.52 |  |
| CCCc1cc(-c2ccc(C#N)n2C)ccc1NC#N [Example 31, [4-(5-cyano-1-methyl-1H-pyrrol-2-yl)-2-propylphenyl] cyanamide] | > 6.52 |  |
| Cn1c(C#N)ccc1-c1ccc(N(S(C)(=O)=O)S(C)(=O)=O)cc1 [Example 17, N-[4-(5-cyano-1-methyl-1H-pyrrol-2-yl)phenyl]-N-(methylsulfonyl)methane sulfonamide] | ~6.52 |  |
| CCCCn1c(C#N)ccc1-c1ccc(NS(=O)(=O)CC)cc1 [Example 68, N-[4-(1-butyl-5-cyano-1H-pyrrol-2-yl)phenyl]ethanesulfonamide] | 6.26 |  |
| C#CCn1c(C#N)ccc1-c1ccc(NS(=O)(=O)CC)cc1 [Example 70, N-[4-(5-cyano-1-prop-2-yn-1-yl-1H-pyrrol-2-yl)phenyl]ethanesulfonamide] | 6.10 |  |
| Cn1c(C#N)ccc1-c1ccc(N)cc1 [Example 1, 5-(4-aminophenyl)-1-methyl-1H-pyrrole-2-carbonitrile] | 6.96 |  |
| CC(C)S(=O)(=O)Nc1ccc(-c2ccc(C#N)n2C)cc1 [Example 23, N-[4-(5-cyano-1-methyl-1H-pyrrol-2-yl)phenyl]propane-2-sulfonamide] | 8.82 |  |
| Cn1c(C#N)ccc1-c1ccc(NC(=O)Nc2ccc(-c3ccc(C#N)n3C)cc2)cc1 [Example 15, N,N′-bis[4-(5-cyano-1-methyl-1H-pyrrol-2-yl)phenyl]urea] | 6.19 |  |
| Cn1c(C#N)ccc1-c1ccc(NC#N)c(F)c1 [Example 34, [4-(5-cyano-1-methyl-1H-pyrrol-2-yl)-2-fluorophenyl]cyanamide] | 6.17 |  |
| Cn1c(C#N)ccc1-c1ccc(NC(=O)c2ccccc2)cc1 [Example 9, N-[4-(5-cyano-1-methyl-1H-pyrrol-2-yl)phenyl]benzamide] | 7.04 |  |
| CCS(=O)(=O)Nc1ccc(-c2ccc(C#N)n2C)c(C#N)c1 [Example 75, N-[3-cyano-4-(5-cyano-1-methyl-1H-pyrrol-2-yl)phenyl]ethanesulfonamide] | 6.91 |  |
| Cn1c(C#N)ccc1-c1ccc(N)c(F)c1 [Example 2, 5-(4-amino-3-fluorophenyl)-1-methyl-1H-pyrrole-2-carbonitrile] | 7.18 |  |
| Cn1c(C#N)ccc1-c1ccc(NS(C)(=O)=O)cc1C(F)(F)F [Example 52, N-[4-(5-cyano-1-methyl-1H-pyrrol-2-yl)-3-(trifluoromethyl)phenyl]methane-sulfonamide] | 7.87 |  |
| Cn1c(C#N)ccc1-c1ccc(NS(C)(=O)=O)c(OC(F)(F)F)c1 [Example 59, N-[4-(5-cyano-1-methyl-1H-pyrrol-2-yl)-2-(trifluoromethoxy)phenyl]methane-sulfonamide] | 7.49 |  |
| CC(C)CC(=O)Nc1ccc(-c2ccc(C#N)n2C)cc1 [Example 4, N-[4-(5-cyano-1-methyl-1H-pyrrol-2-yl)phenyl]-3-methylbutanamide] | 6.52 |  |
| CC(C)COC(=O)Nc1ccc(-c2ccc(C#N)n2C)cc1 [Example 14, Isobutyl[4-(5-cyano-1-methyl-1H-pyrrol-2-yl)phenyl]carbamate] | 6.42 |  |
| CCOC(=O)Nc1ccc(-c2ccc(C#N)n2C)cc1 [Example 13, Ethyl[4-(5-cyano-1-methyl-1H-pyrrol-2-yl)phenyl]carbamate] | 6.58 |  |

Other lines, results leading:

| pIC50 | Active Dose [µM] | SMILES |
| --- | --- | --- |
| 6.57 |  | CCCCS(=O)(=O)Nc1cc(F)c(-c2ccc(C#N)n2C)cc1F [Example 49, N-[4-(5-cyano-1-methyl-1H-pyrrol-2-yl)-2,5-difluorophenyl]butane-1-sulfonamide] |
| 7.80 |  | Cn1c(C#N)ccc1-c1c(F)cc(NS(C)(=O)=O)cc1F [Example 79, N-[4-(5-cyano-1-methyl-1H-pyrrol-2-yl)-3,5-difluorophenyl]-methanesulfonamide] |
| 8.03 |  | CCCS(=O)(=O)Nc1ccc(-c2ccc(C#N)n2C)c(C(F)(F)F)c1 [Example 54, N-[4-(5-cyano-1-methyl-1H-pyrrol-2-yl)-3-(trifluoromethyl)phenyl]propane-1-sulfonamide] |
| 8.42 | 10 | CCS(=O)(=O)Nc1ccc(-c2ccc(C#N)n2C)c(F)c1 [Example 41, N-[4-(5-cyano-1-methyl-1H-pyrrol-2-yl)-3-fluorophenyl]ethanesulfonamide] |
| 8.21 |  | CCCS(=O)(=O)Nc1cc(F)c(-c2ccc(C#N)n2C)c(F)c1 [Example 81, N-[4-(5-cyano-1-methyl-1H-pyrrol-2-yl)-3,5-difluorophenyl]propane-1-sulfonamide] |
| 7.06 |  | CCCS(=O)(=O)Nc1ccc(-c2ccc(C#N)n2C)c(C#N)c1 [Example 76, N-[3-cyano-4-(5-cyano-1-methyl-1H-pyrrol-2-yl)phenyl]propane-1-sulfonamide] |
| 7.52 |  | CCS(=O)(=O)Nc1ccc(-c2ccc(C#N)n2C)cc1F [Example 27, N-[4-(5-cyano-1-methyl-1H-pyrrol-2-yl)-2-fluorophenyl]ethane-sulfonamide] |
| 8.18 |  | CCCCS(=O)(=O)Nc1ccc(-c2ccc(C#N)n2C)c(F)c1 [Example 43, N-[4-(5-cyano-1-methyl-1H-pyrrol-2-yl)-3-fluorophenyl]butane-1-sulfonamide] |
| 7.40 | 10 | Cn1c(C#N)ccc1-c1cc(F)c(NS(C)(=O)=O)cc1F [Example 46, N-[4-(5-cyano-1-methyl-1H-pyrrol-2-yl)-2,5-difluorophenyl]-methane-sulfonamide] |
| 8.01 |  | CCCS(=O)(=O)Nc1ccc(-c2ccc(C#N)n2C)cc1 [Example 16, N-[4-(5-cyano-1-methyl-1H-pyrrol-2-yl)phenyl]propane-1-sulfonamide] |
| 7.72 |  | CCS(=O)(=O)Nc1cc(F)c(-c2ccc(C#N)n2C)c(F)c1 [Example 80, N-[4-(5-cyano-1-methyl-1H-pyrrol-2-yl)-3,5-difluorophenyl]ethane-sulfonamide] |
| 8.46 |  | CCCS(=O)(=O)Nc1ccc(-c2ccc(C#N)n2C)c(F)c1 [Example 42, N-[4-(5-cyano-1-methyl-1H-pyrrol-2-yl)-3-fluorophenyl]propane-1-sulfonamide] |
